In patent US20240287138A1, “CYCLIC PEPTIDES FOR INHIBITING TNF RECEPTOR 1 ACTIVITY” (Merck Sharp & Dohme LLC, priority 2023, published 2024):
pIC50, pKd: −log10 of the molar value. Like-named read-outs stand apart in the source and are kept apart here. Numbered stars: 1 amine (or outer) side, 2 acyl side, 3 side chain; on linkers, the order of the positions; unused ones are H or OH. Bridge positions count the residues as written; N and C are the ends. Square brackets hold non-standard residues; d marks the D form. Peptide text beside a SMILES is read from it. Trp(βS-Me,7-OMe) = COc1cccc2c([C@H](C)[C@H](N)C(=O)O)c[nH]c12; Trp(7-CN) = N#Cc1cccc2c(C[C@H](N)C(=O)O)c[nH]c12; Trp(7-Cl) = N[C@@H](Cc1c[nH]c2c(Cl)cccc12)C(=O)O; Phe(3-CONH2) = NC(=O)c1cccc(C[C@H](N)C(=O)O)c1; Phe(4-CONH2) = NC(=O)c1ccc(C[C@H](N)C(=O)O)cc1; Phe(4-COOH) = N[C@@H](Cc1ccc(C(=O)O)cc1)C(=O)O; 4Pal(3S-Me) = C[C@@H](c1ccncc1)[C@H](N)C(=O)O; Trp(7-aza) = N[C@@H](Cc1c[nH]c2ncccc12)C(=O)O; Pip(5R-OH) = O=C(O)[C@@H]1CC[C@@H](O)CN1; αMeW = C[C@](N)(Cc1c[nH]c2ccccc12)C(=O)O; X1 = O=C([C@@H]1CC[C@H](N[*:1])C1)[*:2]; Pip(4-aza) = O=C(O)[C@@H]1CNCCN1; 4Pal = N[C@@H](Cc1ccncc1)C(=O)O; Gly(cBu) = N[C@H](C(=O)O)C1CCC1; NMeE = CN[C@@H](CCC(=O)O)C(=O)O; dHyp = O=C(O)[C@H]1C[C@H](O)CN1; Cit = NC(=O)NCCC[C@H](N)C(=O)O; Gly(N-CH2CH2OH) = O=C(O)CNCCO; Ahp(2) = CCCCC[C@H](N)C(=O)O; αMeS = C[C@](N)(CO)C(=O)O; Nle = CCCC[C@H](N)C(=O)O; Sar = CNCC(=O)O

Key:
[1] = target: T1, human TNFR1 extracellular domain (ECD) protein (Homo sapiens, UniProt P19438); assay: SPR binding affinity to captured human TNFR1 ECD
T1 construct: HRV 3C protease cleavage site (C); 6His (C, cleaved yes); made in house; host or cells: Sf21 insect cells (baculovirus), secreted
T1 sequence (P19438 30-211): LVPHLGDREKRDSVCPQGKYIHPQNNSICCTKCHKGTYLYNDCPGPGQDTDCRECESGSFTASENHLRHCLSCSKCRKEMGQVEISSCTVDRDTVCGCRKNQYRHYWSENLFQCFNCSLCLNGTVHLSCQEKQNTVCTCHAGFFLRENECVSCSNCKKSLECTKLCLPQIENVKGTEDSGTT
In short: (§1)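 Biotinylated human TNFR1 or TNFR2 ECD (C-terminal Avi-tag, Sf21-expressed) captured on a regenerable streptavidin chip; peptide analytes flowed in 10 mM HEPES pH 7.4, 150 mM NaCl, 3 mM EDTA, 0.05% P20, 2% DMSO. kon and koff measured; affinity calculated from the rate constants.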

[2] = target: T2, human TNFR2 ECD protein (Homo sapiens, UniProt P20333); assay: SPR off-target binding (selectivity) to human TNFR2 ECD
T2 construct: HRV 3C protease cleavage site (C); 6His (C, cleaved yes); made in house; host or cells: Sf21 insect cells (baculovirus), secreted
T2 sequence (P20333 23-257): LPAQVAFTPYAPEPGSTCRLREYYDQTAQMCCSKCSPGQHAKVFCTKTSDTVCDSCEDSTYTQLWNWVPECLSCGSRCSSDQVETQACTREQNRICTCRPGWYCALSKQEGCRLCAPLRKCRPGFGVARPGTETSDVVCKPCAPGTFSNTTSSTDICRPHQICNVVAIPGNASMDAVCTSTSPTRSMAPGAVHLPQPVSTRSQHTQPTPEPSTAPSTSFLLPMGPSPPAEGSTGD
In short: as §1

[3] = target: T3, TNFα-induced NF-κB signal transduction pathway (TNFR1 signaling) in THP-1 cells (Homo sapiens, UniProt P19438); assay: THP-1 Lucia NF-κB reporter cell assay, inhibition of TNFα-induced NF-κB signaling; type: cell-based; details: THP-1 NF-κB Lucia reporter cells, 10 ng/mL TNFα, 16-18 h, secreted luciferase; read-out: THP-1 IC50
T3 sequence (P19438 30-455): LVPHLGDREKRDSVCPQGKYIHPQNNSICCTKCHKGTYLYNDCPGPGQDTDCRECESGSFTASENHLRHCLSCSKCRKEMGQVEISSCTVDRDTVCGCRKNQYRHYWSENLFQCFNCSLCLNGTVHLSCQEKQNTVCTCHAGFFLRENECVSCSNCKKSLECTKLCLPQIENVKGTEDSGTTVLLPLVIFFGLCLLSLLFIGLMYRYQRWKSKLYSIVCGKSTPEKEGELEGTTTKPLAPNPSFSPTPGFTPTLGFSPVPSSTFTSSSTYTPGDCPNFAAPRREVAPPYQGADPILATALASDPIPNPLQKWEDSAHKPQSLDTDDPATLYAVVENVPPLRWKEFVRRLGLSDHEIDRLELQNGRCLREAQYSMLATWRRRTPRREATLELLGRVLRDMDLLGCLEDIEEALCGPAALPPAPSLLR
In short: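 Inhibition of TNFR1-driven NF-κB activation was measured as luminescence of secreted reporter luciferase following overnight (16-18 h) stimulation with 10 ng/mL TNFα.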

Row | Structure (SMILES) | pKd ([1]; biotinylated human TNFR1 ECD on streptavidin chip, from kon and koff, read-out: SPR hTNFR1 KD) | pKd ([2]; biotinylated human TNFR2 ECD on streptavidin chip, read-out: SPR hTNFR2 KD) | pIC50 [3] | pKd [1] | pKd [2]
1 | CCCC[C@@H]1NC(=O)[C@@H]2CC[C@@H](C2)NC(=O)[C@H]([C@@H](C)c2c[nH]c3c(OC)cccc23)NC(=O)CN(C)C(=O)[C@H](Cc2ccc(C(=O)O)cc2)NC(=O)[C@H](Cc2ccc(C(N)=O)cc2)NC(=O)[C@](C)(CO)NC(=O)[C@H](Cc2c[nH]c3c(Cl)cccc23)NC(=O)[C@H](Cc2ccncc2)NC(=O)[C@H](CC(N)=O)NC(=O)[C@H]2C[C@H](O)CN2C(=O)[C@H](Cc2c[nH]c3ccccc23)NC(=O)[C@@H]2CC[C@@H](O)CN2C(=O)[C@H](Cc2ccncc2)NC1=O [SEQ ID NO. 53] (cyclo([4Pal][Trp(7-Cl)][αMeS][Phe(4-CONH2)][Phe(4-COOH)][Sar][Trp(βS-Me,7-OMe)][X1][Nle][4Pal][Pip(5R-OH)]W[dHyp]N)) | 10.70 | < 6.00 | 9.22 | – | –
2 | COc1cccc2c([C@H](C)[C@@H]3NC(=O)CN(C)C(=O)[C@H](Cc4cccc(C(N)=O)c4)NC(=O)[C@H](Cc4ccc(C(=O)O)cc4)NC(=O)[C@](C)(CO)NC(=O)[C@H](Cc4c[nH]c5c(Cl)cccc45)NC(=O)[C@H](Cc4ccncc4)NC(=O)[C@H](CC(N)=O)NC(=O)[C@H]4C[C@H](O)CN4C(=O)[C@H](Cc4c[nH]c5ccccc45)NC(=O)[C@@H]4CC[C@@H](O)CN4C(=O)[C@H](Cc4ccncc4)NC(=O)[C@H](CCCNC(N)=O)NC(=O)[C@@H]4CC[C@@H](C4)NC3=O)c[nH]c12 [SEQ ID NO. 54] (cyclo([4Pal][Trp(7-Cl)][αMeS][Phe(4-COOH)][Phe(3-CONH2)][Sar][Trp(βS-Me,7-OMe)][X1][Cit][4Pal][Pip(5R-OH)]W[dHyp]N)) | – | – | 8.74 | 10.15 | < 6.00
3 | CCCC[C@@H]1NC(=O)CSC[C@@H](C(N)=O)NC(=O)[C@](C)(Cc2c[nH]c3ccccc23)NC(=O)CN(C)C(=O)[C@H](Cc2ccc(O)cc2)NC(=O)[C@H](Cc2ccc(C(=O)O)cc2)NC(=O)[C@](C)(CO)NC(=O)[C@H](Cc2c[nH]c3c(Cl)cccc23)NC(=O)[C@H](Cc2ccncc2)NC(=O)[C@H](CC(N)=O)NC(=O)[C@H](CCC(=O)O)N(C)C(=O)[C@H](Cc2c[nH]c3ncccc23)NC(=O)[C@H](C2CCC2)NC(=O)[C@H](Cc2ccncc2)NC1=O [SEQ ID NO. 56] ({CH2CO}-[Nle][4Pal][Gly(cBu)][Trp(7-aza)][NMeE]N[4Pal][Trp(7-Cl)][αMeS][Phe(4-COOH)]Y[Sar][αMeW]C-NH2; thioether N-14) | – | – | 7.96 | 7.57 | < 6.00
4 | CCCCC[C@@H]1NC(=O)[C@@H]2CC[C@@H](C2)NC(=O)[C@H]([C@@H](C)c2c[nH]c3c(OC)cccc23)NC(=O)CN(C)C(=O)[C@H](Cc2ccc(C(N)=O)cc2)NC(=O)[C@H](Cc2ccc(C(N)=O)cc2)NC(=O)[C@](C)(CO)NC(=O)[C@H](Cc2c[nH]c3c(C#N)cccc23)NC(=O)[C@H](Cc2ccc(C(=O)O)cc2)NC(=O)[C@H](CC(N)=O)NC(=O)[C@H]2C[C@H](O)CN2C(=O)[C@H](Cc2c[nH]c3ccccc23)NC(=O)[C@H](CCC(N)=O)NC(=O)[C@H]([C@@H](C)c2ccncc2)NC1=O [SEQ ID NO. 70] (cyclo([Ahp(2)][4Pal(3S-Me)]QW[dHyp]N[Phe(4-COOH)][Trp(7-CN)][αMeS][Phe(4-CONH2)][Phe(4-CONH2)][Sar][Trp(βS-Me,7-OMe)][X1])) | – | – | 9.05 | 10.15 | < 6.00
5 | CCCC[C@@H]1NC(=O)[C@@H]2CC[C@@H](C2)NC(=O)[C@H]([C@@H](C)c2c[nH]c3c(OC)cccc23)NC(=O)CN(C)C(=O)[C@H](Cc2ccc(O)cc2)NC(=O)[C@H](Cc2ccc(C(=O)O)cc2)NC(=O)[C@](C)(CO)NC(=O)[C@H](Cc2c[nH]c3c(Cl)cccc23)NC(=O)[C@H](Cc2ccncc2)NC(=O)[C@H](CC(N)=O)NC(=O)CN(CCO)C(=O)[C@H](Cc2c[nH]c3ccccc23)NC(=O)[C@@H]2CNCCN2C(=O)[C@H](Cc2ccncc2)NC1=O [SEQ ID NO. 72] (cyclo([4Pal][Trp(7-Cl)][αMeS][Phe(4-COOH)]Y[Sar][Trp(βS-Me,7-OMe)][X1][Nle][4Pal][Pip(4-aza)]W[Gly(N-CH2CH2OH)]N)) | – | – | 9.10 | 10.30 | < 6.00
